Experiment [1] deals with T1, Lysosomal acid glucosylceramidase (Homo sapiens, UniProt P04062).
T1 sequence (P04062 whole entry): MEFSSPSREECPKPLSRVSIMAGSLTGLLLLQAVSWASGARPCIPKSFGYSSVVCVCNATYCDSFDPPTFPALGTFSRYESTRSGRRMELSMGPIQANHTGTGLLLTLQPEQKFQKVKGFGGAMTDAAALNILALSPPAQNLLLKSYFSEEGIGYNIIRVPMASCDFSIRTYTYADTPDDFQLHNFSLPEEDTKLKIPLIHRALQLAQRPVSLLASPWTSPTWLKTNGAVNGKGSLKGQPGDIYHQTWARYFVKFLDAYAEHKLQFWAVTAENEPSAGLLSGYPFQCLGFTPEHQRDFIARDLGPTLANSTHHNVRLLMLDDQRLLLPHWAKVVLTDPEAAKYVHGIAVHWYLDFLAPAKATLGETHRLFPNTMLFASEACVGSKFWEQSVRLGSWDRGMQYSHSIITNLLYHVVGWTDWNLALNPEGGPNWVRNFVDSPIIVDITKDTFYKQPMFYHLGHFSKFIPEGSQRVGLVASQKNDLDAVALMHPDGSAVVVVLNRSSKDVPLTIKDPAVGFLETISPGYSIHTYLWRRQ
The experiment can be described thus: Inhibition of human lysosomal beta-glucocerebrosidase using 2,4-dinitrophenyl-beta-D-glucopyranoside as substrate by UV spectrophotometric analysis.

The target of experiment [2] is T1, Lysosomal acid glucosylceramidase. The experiment can be described thus: Inhibition of human lysosomal beta-glucocerebrosidase.

The Ki is a dissociation constant, usually derived from enzyme kinetics or from competition with a known ligand. A higher Ki goes with weaker binding. With `CN(C)c1cccc2c(S(=O)(=O)NC[C@H]3NC[C@@H](O)[C@H](O)[C@H]3O)cccc12`, the affinity in experiment [1], expressed as Ki, was 0.0075 µM.

Consider `O[C@@H]1[C@@H](O)[C@@H](CCCCCOCC23CC4CC(CC(C4)C2)C3)NC[C@H]1O`, for which the inhibition constant Ki in experiment [2] was found to be 0.001 µM.

`N#C[C@H]1N[C@H](CO)[C@@H](O)[C@H](O)[C@H]1O`: in experiment [1], the Ki is 716 µM.

In experiment [1], `N#C[C@H]1NC[C@@H](O)[C@H](O)[C@H]1O` showed a Ki of 34 µM.

Source of the values: ChEMBL document CHEMBL3286333, “Concise synthesis of C-1-cyano-iminosugars via a new Staudinger/aza Wittig/Strecker multicomponent reaction strategy” (Bioorg Med Chem Lett, 2014).
